These are literature values, as cited in patent publication US20170173276A1, “SYSTEM AND METHOD FOR DELIVERING AN ANTI-ADHESIVE SUBSTANCE TO A BODY CAVITY” (Northgate Technologies Inc., priority 2003, published 2017).

The conditions of series [1]: administration in liquid form; shown in some studies.
For series [2] the following is noted: general/typical value.

For the compound `CCCCN1CCCCC1C(=O)Nc1c(C)cccc1C` (stereo not drawn) [Bupivacaine], in series [1], the post-operative shoulder pain entry was “reducing post-operative shoulder pain”.

With low molecular weight heparin, the half life in series [2] was 4 to 5 h.

For the compound unfractionated heparin, the half life in series [2] is 1 to 2 h.
